{"source": "patent US9045525B2", "about": "“Amyloid β-protein-specific production-inhibiting polypeptide” (THE DOSHISHA, priority 2012, dated 2015)", "key": {"[1]": {"test_system": "Aβ protein in hippocampus", "test": "Aβ protein production inhibition after direct administration in mouse hippocampus", "assay_type": "in vivo", "conditions": "C57BL/6 mouse, 0.2 ng/g directly in right-side hippocampus, three hours after administration, relative to rev#4", "experimental": "A #4 polypeptide solution using 50% DMSO as a solvent was administered to a C57BL/6 mouse in an amount of 0.2 ng/g. The solution was directly administered in the right-side hippocampus of the mouse. Three hours after administration, the right-side hippocampus was extracted, and the amount of Aβ protein extracted by TBS and 6M guanidine hydrochloride was measured by using the sandwich ELISA method (product name: human/rat β amyloid (40) ELISA Kit Wako for immunochemistry, product No. 294-62501; product name: human/rat β amyloid (42) ELISA Kit Wako for immunochemistry, product No. 290-62501: both manufactured by Wako Pure Chemical Industries, Ltd.). As a negative control experiment, a polypeptide (rev#4: SEQ ID NO: 19) having the amino acid sequence in inverse order of #4 polypeptide was administered to the left-side hippocampus of the same mouse.\nFIG. 9 is a graph showing the Aβ protein extracted from the mouse was quantified. The vertical axis indicates the relative value taking the result of negative control experiment in which rev#4 polypeptide was administered as 100%."}, "Aβ in the cerebrum": {"test_system": "Aβ in the cerebrum", "test": "Intraperitoneal administration to mouse, Aβ in cerebrum", "assay_type": "in vivo", "conditions": "150 mg/kg intraperitoneally, three consecutive days, wild-type mice", "experimental": "150 mg/kg #4 polypeptide dissolved in DMSO was intraperitoneally administered to ten wild-type mice (C57 BL/6 N Cr Slc, seven weeks old). The administration was conducted for three consecutive days. Four days after, the mice were euthanized to extract the cerebrum.\nThe extracted cerebrums were dissolved by using a known method, subjected to immunoprecipitation with anti-4G8 antibody, and then subjected to Western blotting using the anti-mouse Aβ antibody. An experiment was conducted in the same manner except that only DMSO was administered as the negative control experiment group (ten mice).\nIn the Western blotting, an experiment was conducted using 5, 10, 50, 100, and 200 pg rodent-originated Aβ as the standard reference material. FIG. 10(A−1) and […] show the results."}, "[2]": {"test": "Intraperitoneal administration of FITC-modified polypeptide, localization around the hippocampus", "assay_type": "in vivo", "conditions": "FITC-modified #4 polypeptide, 150 mg/kg intraperitoneally, three consecutive days, mouse", "experimental": "Subsequently, FITC-modified #4 polypeptide prepared by using a known method was intraperitoneally administered to a mouse. The dose was 150 mg/kg, and the administration was conducted for three consecutive days. Four days after, the mice were euthanized to prepare test pieces of tissue around the hippocampus. As the negative control experiment, DMSO was administered in place of FITC-modified #4 polypeptide.\nIn the figure, “CPLV” indicates the area called the “choroid plex” for producing cerebrospinal fluid."}, "[3]": {"test_system": "Notch transiently expressed in CHO-K1 cells (7WD10 cells)", "test": "Cleavage of Notch protein (NICD) in 7WD10 cells", "assay_type": "cell-based", "conditions": "polypeptide 1, 5, 10, 20, and 50 μM", "experimental": "An experiment was conducted wherein #1, #2, and #4 polypeptides were reacted with CHO-K1 cells (7WD10 cells) that stably expressed APP protein and transiently expressed Notch to confirm the production of Aβ protein and cleavage of Notch protein."}, "CHO-K1 cells": {"test_system": "CHO-K1 cells", "test": "Mouse Aβ production inhibition experiment, CHO-K1 cells", "assay_type": "cell-based", "conditions": "polypeptide 20 μM, CHO-K1 cells expressing mouse-type APP, anti-mouse Aβ antibody Western blotting", "experimental": "(§1) #1, #2, and #4 polypeptides were added to the culture solutions of CHO-K1 cells and Neuro 2A cells (N2A) in such a manner that the final concentration was 20 μM. As a control, L685458 (i.e., a γ-secretase inhibitor) and DMSO were added thereto in such a manner that the final concentration was 20 μM.\n(§2) Thereafter, Aβ contained in the cell culture medium was identified by using a Western-blotting method with an antibody (anti-mouse Aβ antibody) that recognizes Aβ. […] In the figure, L indicates L685458, which is a γ-secretase inhibitor (final concentration of 1 μM)."}, "[4]": {"biological_target": "T1, APP in 7WD10 cells overexpressing APP (Homo sapiens, UniProt P05067)", "T1 construct": "expressed in transfected cells; host or cells: 7WD10", "test": "Analysis of subcellular distribution in 7WD10 cells", "assay_type": "cell-based", "conditions": "Biotin-modified #4 polypeptide", "experimental": "(§3) Biotin-modified #4 polypeptide was prepared using a known method. This polypeptide was allowed to react with CHO-K1 cells and the 7WD10 cells mentioned above, and the resulting cells were immobilized, and then treated with Triton X-100. Thereafter, avidin-modified Alexa488 was reacted with the above. As the negative control experiment, an experiment was conducted reacting avidin-modified Alexa 488 in place of Biotin-modified #4 polypeptide."}, "APP in CHO-K1 cells": {"biological_target": "T2, APP in CHO-K1 cells (Cricetulus griseus, UniProt A0A8C2MGG8)", "T2 construct": "CHO-K1 cells expressing endogenous APP protein at a low level; endogenous in cells; host or cells: CHO-K1", "T2 sequence (A0A8C2MGG8 18-770)": "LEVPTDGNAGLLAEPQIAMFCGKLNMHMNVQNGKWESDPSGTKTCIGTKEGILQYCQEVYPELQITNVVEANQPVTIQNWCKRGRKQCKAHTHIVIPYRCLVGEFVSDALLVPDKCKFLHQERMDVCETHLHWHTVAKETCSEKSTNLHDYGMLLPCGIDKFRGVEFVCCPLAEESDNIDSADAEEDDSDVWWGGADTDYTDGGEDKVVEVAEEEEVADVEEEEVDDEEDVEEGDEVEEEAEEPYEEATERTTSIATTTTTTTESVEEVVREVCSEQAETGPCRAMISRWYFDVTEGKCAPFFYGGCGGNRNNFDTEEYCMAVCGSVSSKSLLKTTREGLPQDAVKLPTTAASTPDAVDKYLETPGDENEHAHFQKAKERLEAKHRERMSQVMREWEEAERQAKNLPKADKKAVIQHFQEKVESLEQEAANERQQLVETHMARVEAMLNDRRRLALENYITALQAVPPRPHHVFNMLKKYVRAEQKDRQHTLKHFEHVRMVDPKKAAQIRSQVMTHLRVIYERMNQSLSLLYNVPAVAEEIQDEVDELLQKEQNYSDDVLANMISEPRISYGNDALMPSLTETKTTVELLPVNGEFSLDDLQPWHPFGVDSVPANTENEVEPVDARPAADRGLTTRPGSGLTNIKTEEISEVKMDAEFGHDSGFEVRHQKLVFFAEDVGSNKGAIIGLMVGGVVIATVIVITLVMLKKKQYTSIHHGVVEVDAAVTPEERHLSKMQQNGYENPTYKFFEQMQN", "test": "Analysis of subcellular distribution in CHO-K1 cells", "assay_type": "cell-based", "conditions": "Biotin-modified #4 polypeptide, avidin-modified Alexa488; CHO-K1 cells expressing endogenous APP at a low level", "experimental": "as §3"}, "Neuro 2A cells (N2A)": {"test_system": "Neuro 2A cells (N2A)", "test": "Mouse Aβ production inhibition experiment, Neuro 2A cells", "assay_type": "cell-based", "conditions": "polypeptide 20 μM, Neuro2A cells expressing mouse-type APP, anti-mouse Aβ antibody Western blotting", "experimental": "as §1, §2"}, "[5]": {"biological_target": "β-secretase against APP (APP-EQ-FLAG) (Homo sapiens, UniProt P05067)", "test": "β-Secretase activity inhibition experiment in vitro, APP-EQ-FLAG substrate", "assay_type": "biochemical", "experimental": "A solution containing the polypeptide having APP (APP-EQ-FLAG: SEQ ID NO: 18) as shown in FIG. 5(A) was prepared in such a manner that its final concentration was 50 nM.\nTo this solution, 9-7 polypeptide, 6-5 polypeptide, #1 polypeptide, #2 polypeptide, #3 polypeptide, #4 polypeptide, #5 polypeptide, #6 polypeptide, #7 polypeptide, #8 polypeptide, #9 polypeptide, and #10 polypeptide were added in such a manner that each solution had the final concentration of 50 μM, followed by reacting with 50 μL β-secretase (0.02 U/μL) for 4 hours. The reaction temperature was 37° C. As a negative control experiment, DMSO was used in place of the 12 types of polypeptides mentioned above.\nAfter completion of the reaction, each sample was subjected to Western blotting using a monoclonal antibody (82E-1) that specifically recognizes the N terminal of APP-EQ-FLAG as shown in FIG. 5(A). Thereafter, the amount of Aβ33-FLAG protein separated by β-secretase was measured.\nAn experiment was conducted in the same manner as Experimental Example 4 described above except that S4 and #4 polypeptides were used as the polypeptide and the amounts of these polypeptides added were adjusted so that the final concentrations were 1, 5, 10, 20, 50, and 100 μM."}}, "note": "Peptide text beside a SMILES is read from it.", "data": [{"smiles": "CC[C@H](C)[C@H](NC(=O)[C@H](CC(=O)O)NC(=O)[C@@H](NC(=O)[C@@H](NC(=O)[C@H](CS)NC(=O)[C@H](Cc1ccc(O)cc1)NC(=O)[C@H](CS)NC(=O)[C@H](CC(=O)O)NC(=O)[C@H](CS)NC(=O)[C@@H](NC(=O)[C@@H](NC(=O)[C@H](CC(C)C)NC(=O)[C@H](Cc1c[nH]cn1)NC(=O)[C@H](CCSC)NC(C)=O)C(C)C)[C@@H](C)CC)[C@@H](C)O)[C@@H](C)O)C(=O)N[C@@H](CS)C(=O)N[C@@H](Cc1ccc(O)cc1)C(=O)N[C@@H](CS)C(=O)N[C@@H](Cc1ccc(O)cc1)C(=O)N[C@@H](CO)C(=O)N[C@@H](CS)C(=O)N[C@H](C(=O)N1CCC[C@H]1C(=O)N[C@@H](CC(N)=O)C(N)=O)[C@@H](C)O", "note": "[#4] (Ac-MHLVICDCYCTTDICYCYSCTPN-NH2)", "values": [{"measurement": "Aβ protein production in hippocampus (sandwich ELISA)", "setting": "[1]", "value": "remarkably inhibited Aβ protein production"}, {"measurement": "Aβ production inhibition (bands quantified with densitometry)", "setting": "Aβ in the cerebrum", "value": "excellent Aβ production inhibition effect"}, {"measurement": "bands indicating Aβ in the cerebrum (Western blotting)", "setting": "Aβ in the cerebrum; compared to DMSO", "value": "the number of bands indicating Aβ was reduced"}, {"measurement": "presence of polypeptide in CA1 region (fluorescent microscopy)", "setting": "[2]", "value": "a portion dyed green indicating the presence of #4 polypeptide was confirmed"}, {"measurement": "presence of polypeptide in choroid plex (CPLV)", "setting": "[2]", "value": "a portion dyed green indicating the presence of #4 polypeptide was confirmed in the blood vessel"}, {"measurement": "presence of polypeptide in dentate gyrus (DG)", "setting": "[2]", "value": "a portion dyed green indicating the presence of #4 polypeptide was also confirmed"}, {"measurement": "abundance of the NICD in the cell lysate", "setting": "[3]", "value": "not decreased"}, {"measurement": "production of Aβ in the culture medium", "setting": "CHO-K1 cells", "value": "the production of Aβ in the culture medium was reduced"}, {"measurement": "entry into cells", "setting": "[4]; CHO-K1 and 7WD10 cells", "value": "entering the cells"}, {"measurement": "binding to intracellular APP", "setting": "[4]; avidin-modified Alexa488, 7WD10 cells overexpressing APP", "value": "remarkably binded also to the intracellular APP"}, {"measurement": "binding to APP in cells", "setting": "APP in CHO-K1 cells", "value": "binded to APP in the cells"}, {"measurement": "production of Aβ in the culture medium", "setting": "Neuro 2A cells (N2A)", "value": "the production of Aβ in the culture medium was reduced"}, {"measurement": "cleavage activity of β-secretase against APP (Aβ33-FLAG)", "setting": "[5]; polypeptide 50 μM, 4 hours, 37° C., Western blotting", "value": "inhibit the cleavage activity of β-secretase against APP more intensely"}, {"measurement": "cleavage activity of β-secretase against APP", "setting": "[5]; polypeptide 1, 5, 10, 20, 50, and 100 μM", "value": "inhibited the cleavage activity of β-secretase against APP in a concentration-dependent manner"}]}]}
